ChEMBL document CHEMBL1201862, “PubChem BioAssay data set” (2004)
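Cells were grown in 96-well plates and exposed to each compound for 48 hours at five concentrations; endpoints were interpolated linearly between bracketing concentrations, or set to the highest concentration if not reached. At the GI50, growth is halved.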 Active and inactive are the calls of the source. Cut-off read from the data, not from the text of the source: active = GI50 up to about 1.1 µM and inactive = higher.

Columns and labels:
Assay in all cases: NCI anticancer screen, dose series, 48 h
NCI-H226 = tested on: NCI-H226
IGROV-1 = tested on: IGROV-1
HCT-116 = tested on: HCT-116
ACHN = tested on: ACHN
Malme-3M = tested on: Malme-3M
HOP-18 = tested on: HOP-18
SF-268 = tested on: SF-268
A549 = tested on: A549
DLD-1 = tested on: DLD-1
CCRF-CEM = tested on: CCRF-CEM
OVCAR-8 = tested on: OVCAR-8
DMS-114 = tested on: DMS-114
KM-20L2 = tested on: KM-20L2
SW-620 = tested on: SW-620
LOX IMVI = tested on: LOX IMVI
CAKI-1 = tested on: CAKI-1
NCI-H460 = tested on: NCI-H460
HCT-15 = tested on: HCT-15
NCI-H23 = tested on: NCI-H23
M14 = tested on: M14
SNB-75 = tested on: SNB-75
UO-31 = tested on: UO-31
A498 = tested on: A498
KM12 = tested on: KM12
UACC-62 = tested on: UACC-62
HOP-62 = tested on: HOP-62
NCI-H522 = tested on: NCI-H522
LXFL 529 = tested on: LXFL 529
HCC 2998 = tested on: HCC 2998
OVCAR-5 = tested on: OVCAR-5
OVCAR-4 = tested on: OVCAR-4
SK-MEL-28 = tested on: SK-MEL-28
EKVX = tested on: EKVX
SNB-78 = tested on: SNB-78
SK-OV-3 = tested on: SK-OV-3
DMS-273 = tested on: DMS-273
RXF 393 = tested on: RXF 393
UACC-257 = tested on: UACC-257
U-251 = tested on: U-251
OVCAR-3 = tested on: OVCAR-3
SK-MEL-5 = tested on: SK-MEL-5
COLO 205 = tested on: COLO 205
M19-MEL = tested on: M19-MEL
SNB-19 = tested on: SNB-19
XF498 = tested on: XF498
HT-29 = tested on: HT-29
SN12C = tested on: SN12C
K562 = tested on: K562
SF-539 = tested on: SF-539
TK-10 = tested on: TK-10
SF-295 = tested on: SF-295
786-0 = tested on: 786-0
MOLT-4 = tested on: MOLT-4
HOP-92 = tested on: HOP-92
SK-MEL-2 = tested on: SK-MEL-2
MDA-MB-231 = tested on: MDA-MB-231
MDA-MB-435 = tested on: MDA-MB-435
HL-60 = tested on: HL-60
T47D = tested on: T47D
SR = tested on: SR
DU-145 = tested on: DU-145
Hs-578T = tested on: Hs-578T
MDA-N = tested on: MDA-N
MCF7 = tested on: MCF7
PC-3 = tested on: PC-3
RPMI-8226 = tested on: RPMI-8226
NCI/ADR-RES = tested on: NCI/ADR-RES
BT-549 = tested on: BT-549

In the case of `S=C(N/N=C/c1ccco1)NC12CC3CC(CC(C3)C1)C2`, the GI50 (NCI-H226) is reported as > 100 µM (inactive), the GI50 (IGROV-1) is reported as > 100 µM (inactive) and the GI50 (HCT-116) is reported as > 100 µM (inactive). For the same compound, the GI50 (ACHN) was > 100 µM (inactive), the GI50 (Malme-3M) was > 100 µM (inactive) and the GI50 (HOP-18) was > 100 µM (inactive). The GI50 (SF-268) was > 100 µM (inactive), the GI50 (A549) was > 100 µM (inactive) and the GI50 (DLD-1) was > 100 µM (inactive). The GI50 (CCRF-CEM) was 54.2 µM (inactive), the GI50 (OVCAR-8) was > 100 µM (inactive) and the GI50 (DMS-114) was 37.3 µM (inactive). The GI50 (KM-20L2) was 42.8 µM (inactive), the GI50 (SW-620) was > 100 µM (inactive) and the GI50 (LOX IMVI) was 86.5 µM (inactive). For the same compound, the GI50 (CAKI-1) was > 100 µM (inactive), the GI50 (NCI-H460) was 66.2 µM (inactive) and the GI50 (HCT-15) was 47.4 µM. The GI50 (NCI-H23) was > 100 µM (inactive), the GI50 (M14) was > 100 µM (inactive) and the GI50 (SNB-75) was 83.8 µM (inactive). For the same compound, the GI50 (UO-31) was > 100 µM (inactive), the GI50 (A498) was > 100 µM (inactive) and the GI50 (KM12) was > 100 µM (inactive). The GI50 (UACC-62) was 29.9 µM (inactive), the GI50 (HOP-62) was > 100 µM (inactive) and the GI50 (NCI-H522) was 36.7 µM (inactive). For the same compound, the GI50 (LXFL 529) was 52.2 µM (inactive), the GI50 (HCC 2998) was 74.8 µM (inactive) and the GI50 (OVCAR-5) was > 100 µM (inactive). The GI50 (OVCAR-4) was 65.3 µM (inactive), the GI50 (SK-MEL-28) was > 100 µM (inactive) and the GI50 (EKVX) was > 100 µM (inactive). For the same compound, the GI50 (SNB-78) was > 100 µM (inactive), the GI50 (SK-OV-3) was > 100 µM (inactive) and the GI50 (DMS-273) was 6.05 µM (inactive). The GI50 (RXF 393) was > 100 µM (inactive), the GI50 (UACC-257) was 32.2 µM (inactive) and the GI50 (U-251) was 73.8 µM (inactive). The GI50 (OVCAR-3) was 84.1 µM (inactive), the GI50 (SK-MEL-5) was 73.8 µM (inactive) and the GI50 (COLO 205) was 15.3 µM (inactive). The GI50 (M19-MEL) was > 100 µM (inactive), the GI50 (SNB-19) was > 100 µM (inactive) and the GI50 (XF498) was > 100 µM (inactive). For the same compound, the GI50 (HT-29) was 31.4 µM (inactive), the GI50 (SN12C) was > 100 µM (inactive) and the GI50 (K562) was 43.8 µM (inactive). For the same compound, the GI50 (SF-539) was > 100 µM (inactive), the GI50 (TK-10) was 49.5 µM (inactive) and the GI50 (SF-295) was > 100 µM (inactive). For the same compound, the GI50 (786-0) was 62.7 µM (inactive), the GI50 (MOLT-4) was 39.4 µM (inactive) and the GI50 (HOP-92) was 47 µM (inactive). The GI50 (SK-MEL-2) was > 100 µM (inactive).

For `CCCCCCCCCCCCCC(=O)OC(/C=C/C(C)C)C(O)C(O)C(OC)C(=O)NC1CCCCNC1=O` (configuration not stated), the GI50 (NCI-H226) was 2.39 µM (inactive), the GI50 (IGROV-1) was 0.527 µM (active) and the GI50 (MDA-MB-231) was 2.58 µM (inactive). The GI50 (MDA-MB-435) was 5.97 µM (inactive), the GI50 (HCT-116) was 0.242 µM (active) and the GI50 (ACHN) was 0.689 µM (active). For the same compound, the GI50 (Malme-3M) was 2.02 µM (inactive), the GI50 (HL-60) was 0.9 µM (active) and the GI50 (HOP-18) was 2.23 µM (inactive). For the same compound, the GI50 (SF-268) was 1.52 µM (inactive), the GI50 (A549) was 0.257 µM (active) and the GI50 (DLD-1) was 0.637 µM (active). For the same compound, the GI50 (CCRF-CEM) was 0.587 µM (active), the GI50 (OVCAR-8) was 1.02 µM (active) and the GI50 (T47D) was > 10 µM (inactive). The GI50 (DMS-114) was 0.615 µM (active), the GI50 (KM-20L2) was 1.46 µM (inactive) and the GI50 (SW-620) was 0.372 µM (active). For the same compound, the GI50 (LOX IMVI) was 0.408 µM (active), the GI50 (CAKI-1) was 0.48 µM (active) and the GI50 (SR) was 0.097 µM (active). For the same compound, the GI50 (NCI-H460) was 0.0906 µM (active), the GI50 (HCT-15) was 1.43 µM and the GI50 (NCI-H23) was 1.2 µM (inactive). For the same compound, the GI50 (M14) was 0.655 µM (active), the GI50 (SNB-75) was 2.05 µM (inactive) and the GI50 (DU-145) was > 10 µM (inactive). For the same compound, the GI50 (UO-31) was 0.989 µM (active), the GI50 (Hs-578T) was 9.79 µM (inactive) and the GI50 (A498) was 5.21 µM (inactive). For the same compound, the GI50 (KM12) was 0.448 µM (active), the GI50 (UACC-62) was 0.697 µM (active) and the GI50 (HOP-62) was 1.61 µM (inactive). The GI50 (NCI-H522) was 0.836 µM (active), the GI50 (MDA-N) was 9.04 µM (inactive) and the GI50 (LXFL 529) was 1.39 µM (inactive). For the same compound, the GI50 (HCC 2998) was 0.574 µM (active), the GI50 (OVCAR-5) was 3.65 µM (inactive) and the GI50 (OVCAR-4) was 1.86 µM (inactive). The GI50 (SK-MEL-28) was 1.61 µM (inactive), the GI50 (MCF7) was 0.693 µM (active) and the GI50 (EKVX) was 3.82 µM (inactive). For the same compound, the GI50 (SNB-78) was 2.82 µM (inactive), the GI50 (SK-OV-3) was 2.54 µM (inactive) and the GI50 (DMS-273) was 0.0916 µM (active). For the same compound, the GI50 (RXF 393) was 0.789 µM (active), the GI50 (PC-3) was > 10 µM (inactive) and the GI50 (UACC-257) was 2.84 µM (inactive). For the same compound, the GI50 (U-251) was 0.673 µM (active), the GI50 (OVCAR-3) was 1.81 µM (inactive) and the GI50 (SK-MEL-5) was 1.9 µM (inactive). The GI50 (COLO 205) was 0.299 µM (active), the GI50 (SNB-19) was 0.815 µM (active) and the GI50 (XF498) was 1.78 µM (inactive). For the same compound, the GI50 (HT-29) was 0.927 µM (active), the GI50 (RPMI-8226) was 2.79 µM (inactive) and the GI50 (SN12C) was 0.579 µM (active). For the same compound, the GI50 (K562) was 0.627 µM (active), the GI50 (SF-539) was 1.38 µM (inactive) and the GI50 (TK-10) was 5.6 µM (inactive). The GI50 (SF-295) was 0.721 µM (active), the GI50 (786-0) was 0.308 µM (active) and the GI50 (MOLT-4) was 0.57 µM (active). The GI50 (NCI/ADR-RES) was > 10 µM (inactive), the GI50 (HOP-92) was 1.17 µM (inactive) and the GI50 (BT-549) was > 10 µM (inactive). For the same compound, the GI50 (SK-MEL-2) was 2.65 µM (inactive).
